According to patent publication US20060194853A1, “Alkyl benzamides” (priority 2004, published 2006):

How the values were obtained:
Type in all cases: cell-based
[1] = tested on: Trichomonas vaginalis UCH-1; assay: in vitro growth inhibition of Trichomonas vaginalis; conditions: for IC50: in vitro, concentration required to inhibit 50% of the growth of the organisms; for effective against T. vaginalis: result in words
[2] = tested on: Giardia intestinalis JKH-1; assay: in vitro growth inhibition of Giardia intestinalis; conditions: for IC50: Giardia duodenalis, in vitro, concentration required to inhibit 50% of the growth of the organisms; for effective against G. intestinalis: result in words
Helicobacter pylori = assay: activity against Helicobacter pylori; conditions: result in words
Campylobacter jejuni = assay: activity against Campylobacter jejuni; conditions: result in words
Influenza A = assay: activity against Influenza A; conditions: result in words
Influenza B = assay: activity against Influenza B; conditions: result in words
Herpes Varicella A = assay: activity against Herpes Varicella (VZV); conditions: result in words
P. falciparum = assay: activity against P. falciparum; conditions: result in words

O=C(Nc1ncc([N+](=O)[O-])s1)c1ccccc1O [Compound A, 2-hydroxy-N-(5-nitro-2-thiazolyl) benzamide, reference compound]
IC50 [1]: 1520 nM

CC(=O)Oc1ccccc1C(=O)Nc1ncc([N+](=O)[O-])s1 [Compound B, 2-acetyloxy-N-(5-nitro-2-thiazolyl)benzamide, reference compound]
IC50 [2]: 12500 nM | IC50 ([1]; Trichomonas vaginalis, UCH1): 605 nM

CC(=O)Oc1c(C)cccc1C(=O)Nc1ncc([N+](=O)[O-])s1 [Compound D, 2-acetyloxy-3-methyl-N-(5-nitro-2-thiazolyl) benzamide]
IC50 [2]: 560 nM | potency against Giardia intestinalis compared to nitazoxanide ([2]; comparison in words, from TABLE I): significantly more potent than nitazoxanide | effective against G. intestinalis [2]: effective | IC50 ([1]; Trichomonas vaginalis, UCH1): 8040 nM | effective against T. vaginalis [1]: effective | effective against H. Pylori (Helicobacter pylori): effective | effective against C. jejuni (Campylobacter jejuni): effective | effective against Influenza A (Influenza A): effective | effective against Influenza B (Influenza B): effective | effective against Herpes VZV (Herpes Varicella A): effective | effective against P. falciparum (P. falciparum): effective

CC(=O)Oc1cc(C)ccc1C(=O)Nc1ncc([N+](=O)[O-])s1 [Compound F, 2-acetyloxy-4-methyl-N-(5-nitro-2-thiazolyl) benzamide]
effective against G. intestinalis [2]: effective | effective against T. vaginalis [1]: effective

CC(=O)Oc1ccc(C)cc1C(=O)Nc1ncc([N+](=O)[O-])s1 [Compound H, 2-acetyloxy-5-methyl-N-(5-nitro-2-thiazolyl) benzamide]
effective against G. intestinalis [2]: effective | effective against T. vaginalis [1]: effective
